A value given as a limit tells only on which side of the number the result lay.

Experiment [1] has as its target MAPK14 (human) (UniProt Q16539). Description: Inhibition of LPS Stimulated TNF Production by U937 Cells. The note with it: for inhibition: concentration not given here.
Experiment [2] shares this target. Description: Inhibition of MAPK14 Kinase Activity by PHAS-I Assay. The note with it: for inhibition: concentration not given here.

Sequence of MAPK14 (human) (Q16539 whole entry, looked up): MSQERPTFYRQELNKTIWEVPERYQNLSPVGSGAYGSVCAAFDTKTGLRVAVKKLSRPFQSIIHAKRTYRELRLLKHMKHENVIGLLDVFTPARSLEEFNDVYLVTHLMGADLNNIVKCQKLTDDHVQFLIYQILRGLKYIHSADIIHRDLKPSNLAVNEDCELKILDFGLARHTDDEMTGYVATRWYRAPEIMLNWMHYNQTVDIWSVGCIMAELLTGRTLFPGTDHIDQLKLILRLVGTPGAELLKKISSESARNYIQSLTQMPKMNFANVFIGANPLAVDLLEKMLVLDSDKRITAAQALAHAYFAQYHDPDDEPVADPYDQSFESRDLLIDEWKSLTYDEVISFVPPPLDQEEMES

For orientation: inhibition means the change of the read-out against control, counted positive when it falls. A low value points to little suppression. Broadly, the IC50 is the concentration that gives 50% inhibition. Read a low IC50 as greater potency in that assay. In the case of `CN(C(=O)NCc1[nH]nc(-c2ccc(F)cc2)c1-c1ccncc1)c1ccccc1`, on MAPK14 (human) [1], the inhibition turned out to be 18%. This compound yielded an IC50 at MAPK14 (human) [2] of 530 nM.
Turning to `O=S(=O)(/C=C/c1ccccc1)NCCc1[nH]nc(-c2ccc(F)cc2)c1-c1ccncc1`, the inhibition on MAPK14 (human) [1] is 10%; against MAPK14 (human) [2], 58%.
`C=CCOC(=O)NCCCc1[nH]nc(-c2ccc(F)cc2)c1-c1ccncc1` displayed an IC50 against MAPK14 (human) [1] of 590 nM. On MAPK14 (human) [2], the inhibition was 79%.
Take `CCOC(=O)NC(=O)NCCc1[nH]nc(-c2ccc(F)cc2)c1-c1ccncc1`: the values for the inhibition at MAPK14 (human) [1] and on MAPK14 (human) [2] were 22% and 56%, respectively.
In the same order, the values of `COc1cc(OC)c(NC(=O)NCCc2[nH]nc(-c3ccc(F)cc3)c2-c2ccncc2)cc1Cl` are 32% and 82%.
On to `CC(=O)Oc1cccc(C(=O)NCc2[nH]nc(-c3ccc(F)cc3)c2-c2ccncc2)c1`, for which the values for the inhibition against MAPK14 (human) [1] and against MAPK14 (human) [2] were 52% and 98%, respectively.
Taken in the same sequence, the figures for `COC(=O)C(=O)NCc1[nH]nc(-c2ccc(F)cc2)c1-c1ccncc1` were 79% and 89%.
On to `CN1CCN(CCCNC(=O)NCCCc2[nH]nc(-c3ccc(F)cc3)c2-c2ccncc2)CC1`, for which the figures for the IC50 at MAPK14 (human) [1] and on MAPK14 (human) [2] were over 1000 nM and 91 nM, respectively.
`CCN1CCC(N(CC)C(=O)Cn2nc(-c3ccc(F)cc3)c(-c3ccncc3)c2C)C1` (stereo not given) registered an IC50 at MAPK14 (human) [1] of over 10000 nM. Also, the inhibition at MAPK14 (human) [2] was determined as 32%.
Turning to `CC(=O)O[C@H](C)C(=O)NCCCc1[nH]nc(-c2ccc(F)cc2)c1-c1ccncc1`, the IC50 at MAPK14 (human) [1] is 570 nM. The inhibition against MAPK14 (human) [2] stood at 82%.
`Cc1c(-c2ccncc2)c(-c2ccc(F)cc2)nn1CC(=O)N(C)CCN(C)C` yielded a concentration for half-maximal inhibition (IC50) against MAPK14 (human) [1] of over 10000 nM. Further, on MAPK14 (human) [2], the inhibition stood at 62%.
For `COc1ccccc1C(=O)NCCc1[nH]nc(-c2ccc(F)cc2)c1-c1ccncc1`, the inhibition at MAPK14 (human) [1] is 14%; against MAPK14 (human) [2] it was 53%.
For `C=Cc1ccc(S(=O)(=O)NCc2[nH]nc(-c3ccc(F)cc3)c2-c2ccncc2)cc1`, the inhibition was found to be 9% against MAPK14 (human) [1] and 67% against MAPK14 (human) [2].
With `Cc1c(-c2ccncc2)c(-c2ccc(F)cc2)nn1CC(=O)N[C@@H](C)c1ccccc1`, the inhibition against MAPK14 (human) [1] stood at 46%; on MAPK14 (human) [2] it was 83%.
On to `CCOC(=O)C(CCSC)NC(=O)NCc1[nH]nc(-c2ccc(F)cc2)c1-c1ccncc1` (stereo not given), for which the inhibition on MAPK14 (human) [1] was determined as 22%; against MAPK14 (human) [2] it was 44%.
Consider `CCC(=O)C(=O)CCCCCNC(=O)NCCc1[nH]nc(-c2ccc(F)cc2)c1-c1ccncc1`, for which, on MAPK14 (human) [1], the IC50 is over 1000 nM. Also, on MAPK14 (human) [2], the inhibition is 69%.
Consider `C=CCOC(=O)NCc1[nH]nc(-c2ccc(F)cc2)c1-c1ccncc1`, for which, on MAPK14 (human) [1], the IC50 is 10000 nM. In addition, the inhibition against MAPK14 (human) [2] was determined as 97%.
On to `CSc1cccc(NC(=O)NCCc2[nH]nc(-c3ccc(F)cc3)c2-c2ccncc2)c1`, for which the values for the inhibition against MAPK14 (human) [1] and against MAPK14 (human) [2] were 37% and 47%, respectively.
`O=C(NCCc1[nH]nc(-c2ccc(F)cc2)c1-c1ccncc1)[C@@H]1CCCN1` had an IC50 against MAPK14 (human) [1] of 760 nM. Also, the inhibition against MAPK14 (human) [2] is 89%.
Take `CC1(C)[C@H]2CC[C@@]1(CS(=O)(=O)NCCCc1[nH]nc(-c3ccc(F)cc3)c1-c1ccncc1)C(=O)C2`: the inhibition against MAPK14 (human) [1] is 38%. In addition, the IC50 on MAPK14 (human) [2] was under 100 nM.
`CCOC(=O)c1ccc(NC(=O)NCCc2[nH]nc(-c3ccc(F)cc3)c2-c2ccncc2)cc1`: the inhibition was determined as 17% against MAPK14 (human) [1] and 90% at MAPK14 (human) [2].
Consider `CCCCOc1ccc(NC(=O)NCCc2[nH]nc(-c3ccc(F)cc3)c2-c2ccncc2)cc1`, for which the results for the inhibition on MAPK14 (human) [1] and against MAPK14 (human) [2] were 27% and 45%, respectively.
`O=S(=O)(NCCc1[nH]nc(-c2ccc(F)cc2)c1-c1ccncc1)c1ccc(F)cc1`: the inhibition at MAPK14 (human) [1] was 7%; at MAPK14 (human) [2], 85%.
Consider `O=C(NCCCc1[nH]nc(-c2ccc(F)cc2)c1-c1ccncc1)Nc1cccc(F)c1`, for which the inhibition against MAPK14 (human) [1] is 61%; against MAPK14 (human) [2], 80%.
For the compound `CCNC(=O)NCCc1[nH]nc(-c2ccc(F)cc2)c1-c1ccncc1`, the inhibition worked out at 65% on MAPK14 (human) [1] and 67% at MAPK14 (human) [2].

For the origin of these results see the Kinase Knowledgebase extract (Sharma et al. 2016).
